In patent publication US8741886B2, “Baclofen and acamprosate based therapy of neurological disorders” (Pharnext, priority 2011, dated 2014):

Test system: rat cortical neurons
Assay: Toxicity of Aβ1-42 in neurite growth model: total length of neurite network
Type: cell-based
Details: Aβ1-42 2.5 μM; single drugs at the concentrations used in the combination
Description: Rat cortical neurons were cultured as described by Singer et al. (35). Briefly pregnant female rats of 15 days gestation were killed by cervical dislocation (Rats Wistar) and the foetuses were removed from the uterus. The cortex was removed and placed in ice-cold medium of Leibovitz (L15) containing 2% of Penicillin 10.000 U/ml and Streptomycin 10 mg/ml and 1% of bovine serum albumin (BSA). Cortices were dissociated by trypsin for 20 min at 37° C. (0.05%). The reaction was stopped by the addition of Dulbecco's modified Eagle's medium (DMEM) containing DNasel grade II and 10% of foetal calf serum (FCS). Cells were then mechanically dissociated by 3 serial passages through a 10 ml pipette and centrifuged at 515×g for 10 min at +4° C. […] Viable cells were counted in a Neubauer cytometer using the trypan blue exclusion test. […]
After 24 hours of intoxication, the supernatant is taken off and the cortical neurons are fixed by a cold solution of ethanol (95%) and acetic acid (5%) for 5 min. […] Then, cells are incubated with monoclonal antibody anti microtubule-associated-protein 2 (MAP-2; Sigma) or with anti synaptophysin (SYN, S5798, Sigma) together with anti PSD95 (P246, Sigma) antibodies in order to quantify synapses. […]

Row | Structure (SMILES) | effect on Aβ1-42 intoxication, total length of neurites network (in words)
1 | CC(=O)NCCCS(=O)(=O)O [Acamprosate] | no significant effect
2 | NCC(CC(=O)O)c1ccc(Cl)cc1 (centres unmarked) [Baclofen] | no significant effect
